From PubChem BioAssay (NCI) come the findings set out here.

Among the test systems are CAKI-1 renal; HL-60(TB) leukemia; MDA-MB-468 breast; NCI-H23 lung; RPMI-8226 leukemia.
Common to all, as to assay: NCI anticancer screen, dose series, 384-well format

Molecules are shown by their SMILES.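 The concentration for 50% growth inhibition is given as GI50. Definition used: TGI = concentration required for complete inhibition of growth.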

Turning to `O=c1[nH]cnc2[nH]ncc12`, the GI50 in the assay with CAKI-1 renal was 36.8 µM; with HL-60(TB) leukemia, 74.5 µM; with MDA-MB-468 breast, 85.2 µM; in the assay with NCI-H23 lung, 98.4 µM; in the assay on RPMI-8226 leukemia, 24 µM. The compound also yielded a TGI in the assay with RPMI-8226 leukemia of 60.9 µM.
